Experimental data as given in ChEMBL document CHEMBL3714716, “Modulators of the relaxin receptor 1” (2015).
Converted amounts (≈) assume the structure as drawn. The source made the active and inactive calls. The rule behind the calls is not given here.

Assays:
Relaxin receptor 1 [1] = biological target: T1, Relaxin receptor 1 (Homo sapiens, UniProt Q9HBX9); assay: Agonist activity at RXFP1 receptor (unknown origin) expressed in HEK293 cells assessed as stimulation of cAMP production incubated for 30 mins by TR-FRET based HTRF assay; type: functional, cell-based
T1 sequence (Q9HBX9 whole entry): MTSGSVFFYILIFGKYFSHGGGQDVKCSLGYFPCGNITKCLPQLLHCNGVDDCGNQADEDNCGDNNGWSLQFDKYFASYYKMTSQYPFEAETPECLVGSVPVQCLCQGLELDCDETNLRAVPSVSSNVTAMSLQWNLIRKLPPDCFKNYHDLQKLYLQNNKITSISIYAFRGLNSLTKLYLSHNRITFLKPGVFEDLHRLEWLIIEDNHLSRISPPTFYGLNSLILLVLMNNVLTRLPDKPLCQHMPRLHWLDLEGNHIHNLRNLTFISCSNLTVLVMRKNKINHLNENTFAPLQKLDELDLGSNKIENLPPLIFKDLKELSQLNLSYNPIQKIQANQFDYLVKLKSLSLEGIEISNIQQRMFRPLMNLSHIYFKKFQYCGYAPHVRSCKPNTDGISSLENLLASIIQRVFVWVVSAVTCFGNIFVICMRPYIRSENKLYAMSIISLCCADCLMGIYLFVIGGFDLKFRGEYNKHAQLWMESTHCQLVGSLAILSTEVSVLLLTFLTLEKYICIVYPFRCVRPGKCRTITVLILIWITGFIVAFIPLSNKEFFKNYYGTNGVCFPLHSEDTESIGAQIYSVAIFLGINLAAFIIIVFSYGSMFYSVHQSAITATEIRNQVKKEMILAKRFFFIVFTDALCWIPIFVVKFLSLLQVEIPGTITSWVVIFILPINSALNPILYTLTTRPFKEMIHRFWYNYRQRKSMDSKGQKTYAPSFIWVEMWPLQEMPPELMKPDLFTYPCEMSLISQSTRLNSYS

Vasopressin V1b receptor = biological target: T2, Vasopressin V1b receptor (Homo sapiens, UniProt P47901); assay: Agonist activity at vasopressin receptor 1b (unknown origin) expressed in HEK293 cells assessed as stimulation of cAMP production incubated for 30 mins by HTRF assay; type: functional, cell-based
T2 sequence (P47901 whole entry): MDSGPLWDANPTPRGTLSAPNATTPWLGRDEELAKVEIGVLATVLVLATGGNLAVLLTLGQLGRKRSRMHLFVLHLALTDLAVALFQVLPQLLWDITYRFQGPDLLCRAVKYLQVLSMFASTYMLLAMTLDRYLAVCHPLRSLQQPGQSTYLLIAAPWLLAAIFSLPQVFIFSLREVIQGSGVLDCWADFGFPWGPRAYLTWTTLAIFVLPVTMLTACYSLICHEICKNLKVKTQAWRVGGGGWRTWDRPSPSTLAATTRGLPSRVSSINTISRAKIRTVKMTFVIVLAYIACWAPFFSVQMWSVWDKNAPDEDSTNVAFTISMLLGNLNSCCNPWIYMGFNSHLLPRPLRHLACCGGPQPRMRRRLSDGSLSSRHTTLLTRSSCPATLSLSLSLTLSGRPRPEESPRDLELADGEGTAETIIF

[2] = Cytotoxic activity against HEK293 cells assessed as reduction in cell viability by measuring ATP level incubated for 72 hrs by ATP cytotoxicity assay relative to control; type: cell-based; conditions: human, read-out: %max
Relaxin receptor 2 [3] = biological target: T3, Relaxin receptor 2 (Homo sapiens, UniProt Q8WXD0); assay: Agonist activity at RXFP2 receptor (unknown origin) expressed in HEK293 cells assessed as stimulation of cAMP production incubated for 30 mins by HTRF assay relative to control; type: functional, cell-based
T3 sequence (Q8WXD0 whole entry): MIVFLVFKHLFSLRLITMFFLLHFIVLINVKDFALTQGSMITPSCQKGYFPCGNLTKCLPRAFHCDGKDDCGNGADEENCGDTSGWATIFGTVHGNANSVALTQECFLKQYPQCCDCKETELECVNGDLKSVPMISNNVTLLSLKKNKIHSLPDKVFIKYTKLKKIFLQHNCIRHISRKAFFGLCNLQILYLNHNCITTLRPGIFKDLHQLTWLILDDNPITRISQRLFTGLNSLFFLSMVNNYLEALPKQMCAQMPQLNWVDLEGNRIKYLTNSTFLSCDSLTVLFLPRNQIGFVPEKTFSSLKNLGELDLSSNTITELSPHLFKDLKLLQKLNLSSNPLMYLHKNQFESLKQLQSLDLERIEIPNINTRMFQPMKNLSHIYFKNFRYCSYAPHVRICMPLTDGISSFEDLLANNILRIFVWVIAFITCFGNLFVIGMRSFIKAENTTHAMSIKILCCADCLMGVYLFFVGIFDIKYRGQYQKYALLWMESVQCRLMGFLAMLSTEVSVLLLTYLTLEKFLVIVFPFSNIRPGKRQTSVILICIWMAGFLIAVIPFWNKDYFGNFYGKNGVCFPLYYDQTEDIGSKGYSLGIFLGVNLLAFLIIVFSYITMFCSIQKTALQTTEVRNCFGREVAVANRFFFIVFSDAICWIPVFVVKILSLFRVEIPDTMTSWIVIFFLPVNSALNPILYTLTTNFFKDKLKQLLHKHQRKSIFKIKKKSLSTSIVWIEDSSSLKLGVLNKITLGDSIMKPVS

[4] = biological target: T4, Relaxin receptor 1 (Homo sapiens) (UniProt Q9HBX9); assay: Agonist activity at RXFP1 receptor (unknown origin) expressed in HEK293 cells assessed as stimulation of cAMP production incubated for 30 mins by TR-FRET based HTRF assay relative to forskolin; type: functional, cell-based
T4 sequence (whole entry): T1 sequence (Q9HBX9 whole entry)

Relaxin receptor 2 [5] = biological target: T3, Relaxin receptor 2; assay: Agonist activity at RXFP2 receptor (unknown origin) expressed in HEK293 cells assessed as stimulation of cAMP production incubated for 30 mins by HTRF assay; type: functional, cell-based
[6] = Solubility in PBS buffer; type: physicochemical
[7] = biological target: T5, Vasopressin V1b receptor (Homo sapiens) (UniProt P47901); assay: Agonist activity at vasopressin receptor 1b (unknown origin) expressed in HEK293 cells assessed as stimulation of cAMP production incubated for 30 mins by HTRF assay relative to control; type: functional, cell-based
T5 sequence (whole entry): T2 sequence (P47901 whole entry)

HEK293 = assay: Cytotoxic activity against HEK293 cells assessed as reduction in cell viability by measuring ATP level incubated for 72 hrs by ATP cytotoxicity assay; type: cell-based, Homo sapiens; conditions: Homo sapiens, HEK293, 72 h; read-out: EC50
Relaxin receptor 1 [8] = biological target: T1, Relaxin receptor 1; assay: Agonist activity at RXFP1 receptor in human THP1 cells assessed as stimulation of cAMP production incubated for 30 mins by HTRF assay; type: functional, cell-based, THP-1
[9] = Stimulation of VEGF gene expression in human THP1 cells assessed as change in VEGF mRNA level incubated for 2 hrs by quantitative real time RT-PCR method relative to control; type: functional, cell-based; conditions: THP-1

| SMILES | AC50 (Relaxin receptor 1 [1]; read-out: AC50) [µM] | %max [4] | other results |
| --- | --- | --- | --- |
| O=C(Nc1cccc(C(F)(F)F)c1)c1ccccc1NC(=O)c1cccc2nc[nH]c12 | 11.8 | 90% | AC50 (Vasopressin V1b receptor): Not Active; Emax at 72 h [2]: -76%; %max (Relaxin receptor 2 [3]): < 30%; AC50 (Relaxin receptor 2 [5]; hek293): Not Active; solubility [6]: 6.3 µM (≈ 2.67 µg/mL); %max [7]: < 30% |
| O=C(Nc1ccccc1C(=O)Nc1cccc(C(F)(F)F)c1)c1cccnc1 | 5.93 | 95% | AC50 (Vasopressin V1b receptor): Not Active; Emax at 72 h [2]: 85%; EC50 (HEK293): 9.4 µM; %max (Relaxin receptor 2 [3]): < 30%; AC50 (Relaxin receptor 2 [5]; hek293): Not Active; solubility [6]: 7 µM (≈ 2.7 µg/mL); %max [7]: < 30% |
| O=C(Nc1cccc(S(=O)(=O)C(F)(F)F)c1)c1ccccc1NC(=O)c1ccccc1OCC(F)(F)F | 0.067 | 97% | EC50 (Relaxin receptor 1 [8]): 0.107 µM; fold change (FC) [9]: 1.3 |
| CCCOc1ccccc1C(=O)Nc1ccccc1C(=O)Nc1cccc(S(=O)(=O)C(F)(F)F)c1 | 0.052 | 98% | EC50 (Relaxin receptor 1 [8]): 0.105 µM; fold change (FC) [9]: 1.5 |
| O=C(Nc1ccccc1C(=O)Nc1cccc(C(F)(F)F)c1)c1ccno1 | 14.9 | 93% | AC50 (Vasopressin V1b receptor): Not Active; Emax at 72 h [2]: -73%; %max (Relaxin receptor 2 [3]): 38%; AC50 (Relaxin receptor 2 [5]; read-out: AC50): 7.47 µM; solubility [6]: < 1.1 µM; %max [7]: < 30% |
| COc1ccccc1C(=O)Nc1ccccc1C(=O)Nc1cccc(S(=O)(=O)C(F)(F)F)c1 | 0.188 | 99% | EC50 (Relaxin receptor 1 [8]): 0.358 µM; fold change (FC) [9]: 1.4 |
| CCOc1ccccc1C(=O)Nc1ccccc1C(=O)Nc1cccc(S(=O)(=O)C(F)(F)F)c1 | – | 99% | EC50 (Relaxin receptor 1 [8]): 0.362 µM; fold change (FC) [9]: 2.3 |
| CCOc1ccccc1C(=O)Nc1ccccc1C(=O)Nc1cccc(C(F)(F)F)c1 | 0.265 | 94% | EC50 (Relaxin receptor 1 [8]): 0.471 µM; fold change (FC) [9]: 1.9 |
| CCOc1ccccc1C(=O)Nc1ccccc1C(=O)Nc1cccc(-c2nnn[nH]2)c1 | – | inactive | AC50 (Relaxin receptor 1 [1]; hek293): Not Active |
| O=C(Nc1cccc(N2CCCCC2)c1)c1ccccc1NC(=O)C1CCCCC1 | – | inactive | AC50 (Relaxin receptor 1 [1]; hek293): Not Active |
| COc1ccccc1-c1ccccc1C(=O)Nc1cccc(C(F)(F)F)c1 | – | inactive | AC50 (Relaxin receptor 1 [1]; hek293): Not Active |
| O=C(Nc1cccc(F)c1)c1ccccc1NC(=O)C1CCCCC1 | 13.3 | 81% | – |
| CN(C)CCCOc1ccccc1C(=O)Nc1ccccc1C(=O)Nc1cccc(C(F)(F)F)c1 | 59.3 | 66% | – |
| O=C(Nc1ccc2c(c1)CCC2)c1ccccc1NC(=O)C1CCCCC1 | 9.4 | 46% | – |
| O=C(Nc1cccc(C(F)(F)F)c1)c1ccccc1NCc1ccccc1 | 47.1 | 69% | – |
| O=C(Nc1cccc(SC(F)(F)F)c1)c1ccccc1NC(=O)C1CCCCC1 | 1.88 | 90% | – |
| CCOc1ccccc1C(=O)Nc1ccccc1C(=O)Nc1cccc(SC(F)(F)F)c1 | 0.666 | 98% | – |
| O=C(Nc1ccccc1F)c1ccccc1NC(=O)C1CCCCC1 | – | inactive | AC50 (Relaxin receptor 1 [1]; hek293): Not Active |
| O=C(Nc1ccc(F)cc1)c1ccccc1NC(=O)C1CCCCC1 | 37.4 | 74% | – |
| Cc1cccc(C(=O)Nc2ccccc2C(=O)Nc2cccc(C(F)(F)F)c2)c1 | 3.74 | 92% | – |

| SMILES | AC50 (Relaxin receptor 1 [1]; read-out: AC50) [µM] | %max [4] | other results |
| --- | --- | --- | --- |
| COCCOc1ccccc1C(=O)Nc1ccccc1C(=O)Nc1cccc(C(F)(F)F)c1 | 0.747 | 98% | – |
| O=C(Nc1cccc(Br)c1)c1ccccc1NC(=O)C1CCCCC1 | 2.65 | 91% | – |
| CCOc1ccccc1C(=O)Nc1cccc2c1C(=O)N(c1cccc(S(=O)(=O)C(F)(F)F)c1)C2 | – | inactive | AC50 (Relaxin receptor 1 [1]; hek293): Not Active |
| O=C(Nc1ccccc1C(=O)Nc1cccc(C(F)(F)F)c1)c1ccc2ccccc2c1 | 14.9 | 85% | – |
| O=C(Nc1cccc(C(F)(F)F)c1)c1ccccc1NC(=O)c1ccccc1OCCN1CCNCC1 | – | inactive | AC50 (Relaxin receptor 1 [1]; hek293): Not Active |
| O=C(Nc1cccc(C(F)(F)F)c1)c1ccccc1NC(=O)c1cccc2ccccc12 | 5.93 | 81% | – |
| COc1ccccc1C(=O)Nc1ccccc1C(=O)Nc1cccc(SC(F)(F)F)c1 | 0.297 | 99% | EC50 (Relaxin receptor 1 [8]): 0.523 µM; fold change (FC) [9]: 1.2 |
| O=C(Nc1cc(C(F)(F)F)ccc1F)c1ccccc1NC(=O)C1CCCCC1 | – | inactive | AC50 (Relaxin receptor 1 [1]; hek293): Not Active |
| CCSc1ccccc1C(=O)Nc1ccccc1C(=O)Nc1cccc(S(=O)(=O)C(F)(F)F)c1 | 0.529 | 95% | – |
| COc1ccccc1C(=O)Nc1ccccc1C(=O)Nc1cccc(-c2cccs2)c1 | – | inactive | AC50 (Relaxin receptor 1 [1]; hek293): Not Active |
| N#Cc1ccc(C(=O)Nc2ccccc2C(=O)Nc2cccc(C(F)(F)F)c2)cc1 | 1.67 | 96% | – |
| COc1ccccc1C(=O)Nc1ccccc1C(=O)Nc1cccc(C(F)(F)F)c1 | 0.334 | 99% | – |
| COc1ccccc1C(=O)Nc1ccccc1C(=O)N(C)c1cccc(C(F)(F)F)c1 | 29.7 | 77% | – |
| COc1cccc(NC(=O)c2ccccc2NC(=O)C2CCCCC2)c1 | 37.4 | 74% | – |
| CNCCOc1ccccc1C(=O)Nc1ccccc1C(=O)Nc1cccc(C(F)(F)F)c1 | 3.74 | 92% | – |
| O=C(Nc1cccc(C(F)(F)F)c1)c1ccccc1NC(=O)C1CC1 | 8.38 | 79% | – |
| CC1CCC(C(=O)Nc2ccccc2C(=O)Nc2cccc(C(F)(F)F)c2)CC1 (stereo not drawn) | 2.36 | 92% | – |
| O=C(NCc1cccs1)c1ccccc1NC(=O)C1CCCCC1 | 118 | 40% | – |
| CCC(CC)C(=O)Nc1ccccc1C(=O)Nc1cccc(C(F)(F)F)c1 | 5.29 | 59% | – |
